The target of experiment [1] is T1, GEN1 (Homo sapiens, UniProt Q17RS7).
T1 construct: Truncated GEN1 (1-527) was expressed in insect cells; Strep-tag (implied by Streptrap column); made in house; host or cells: insect cells
In words: Fluorescence-based nuclease activity assay, GEN1. In kind it is biochemical. The settings on record: n = 11, SD = 569; cognate substrate. On the procedure: MSC778 was dissolved in dimethyl sulphoxide (DMSO) to give a 10 mM stock. FEN1/EXO1: compound was dispensed into black 384-shallow well microplates (Greiner #784076). The compound was dispensed as an 11-point dose response with a 3-fold serial dilution from a top concentration of 10 mM (to give a final in-assay concentration of 100 µM). GEN1/XPG: MSC778 was dispensed into black 1536-well plates (Greiner #782076). The compound was dispensed as a 20-point dose response with a 3-fold serial dilution from a top concentration of 10 mM (to give a final in-assay concentration of 100 µM). The volume of DMSO was adjusted to ensure that each well contained 1% (v/v) DMSO in the final assay. Control wells containing DMSO alone or inhibitor at sufficient concentration to cause complete inhibition of the reaction were also included. […]
5 µl (FEN1/EXO1) or 3 µl per well (GEN1/XPG) of stop buffer (20 mM Tris pH 7.5, 300 mM EDTA) was added to all wells, then the plates were read on the CLARIOstar Plus (BMG LABTECH Ltd.) using the Fluorescein (FITC) wavelengths (Ex 483 ± 14, Em 530 ± 30, Dichroic auto/502.5) and auto focal height/gain settings.
All data analysis was carried out using Genedata Screener software. IC50 values were calculated using the SmartFit function.

The target of experiment [2] is T2, FEN1(1-380)-6His (Homo sapiens, UniProt P39748).
T2 construct: FEN1(1-380)-6His was immobilized on a CM5 chip; made in house; host or cells: Escherichia coli
T2 sequence (P39748 whole entry): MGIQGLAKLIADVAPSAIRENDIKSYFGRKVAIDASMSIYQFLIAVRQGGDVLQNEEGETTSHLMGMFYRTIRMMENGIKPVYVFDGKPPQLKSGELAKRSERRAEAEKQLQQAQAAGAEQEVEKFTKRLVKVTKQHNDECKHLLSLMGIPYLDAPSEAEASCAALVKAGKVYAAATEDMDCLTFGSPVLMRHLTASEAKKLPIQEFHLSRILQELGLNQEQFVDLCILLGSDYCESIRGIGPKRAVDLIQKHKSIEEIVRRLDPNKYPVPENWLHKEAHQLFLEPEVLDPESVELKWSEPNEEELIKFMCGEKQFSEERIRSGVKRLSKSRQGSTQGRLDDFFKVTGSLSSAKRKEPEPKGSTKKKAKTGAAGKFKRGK
In words: Surface plasmon resonance on immobilized FEN1. In kind it is binding. Particulars: SPR, 25°C, mean of n = 4 surfaces; for Kd: 1:1 Langmuir model; for residence time: read-out: τ (residence time). On the procedure: The kinetic parameters of the interaction between FEN1 and small molecules were assessed by surface plasmon resonance (SPR). FEN1(1-380)-6His was immobilized on a CM5 chip (Series S, Cytiva, Uppsala, Sweden) via standard amine coupling procedure at 25°C. Prior to immobilization, the carboxymethylated surface of the CM5 chip was activated with 400 mM 1-ethyl-3-(3-dimethylaminopropyl)-carbodiimide and 100 mM N-hydroxysuccinimide for 7 min. FEN1 was diluted to 10 µg/ml in 10 mM Bis–Tris pH 6.50 and injected in the presence of 2 µM of an active site binder on the CM5 chip for 3 or 4 min resulting in immobilization levels between 1300 and 3100 response units (RU). The remaining activated carboxymethylated groups were blocked with a 7 min injection of 1 M ethanolamine pH 8.50. HBS-N pH 7.40 was used as the background buffer during immobilization.
All compounds were prediluted in DMSO, diluted 1:50 in running buffer (20 mM Tris–HCl pH 7.50, 100 mM KCl, 1 mM DTT, 5 mM MgCl2, 0.05% Tween-20, and 2% DMSO) and injected at 10 different concentrations using two-fold dilution series. A DMSO solvent correction (10 steps, 1.4%–2.8%) was performed to account for variations in bulk signal and to achieve high-quality data. Interaction analysis cycles consisted of a 150 s sample injection (30 μl/min; association phase) followed by 300 s of buffer flow (dissociation phase).
Experiments were performed on a Biacore 8K+ (Cytiva, Uppsala, Sweden) at 25°C and the interactions were evaluated using the Biacore Insight evaluation software (version 5.0). All sensorgrams were processed by first subtracting the signal of the control surface (reference spot) from the binding response, followed by subtraction of the buffer blank injection from the reaction spot (double referencing). All datasets were fitted to a simple 1:1 Langmuir interaction model to determine the kinetic rate constants (using as offset RI = const = 0 and for Rmax either global or local, if the surface generation was not complete between consecutive cycles). Reported kinetic parameters are mean values from four independent FEN1 surfaces (n = 4).
For orientation: SPR reads the build-up and loss of mass on a sensor chip optically.

The subject of experiment [3] is DLD-1 cells. The experiment is described as follows: Cell viability assay (AlamarBlue), 7 days. The settings on record: Homo sapiens, 168 h, DLD-1 wild-type, N = 3. In kind it is cell-based. On the procedure: Cells were seeded in 96-well plates and treated the day after seeding with a serial dilution of compounds in technical duplicates. After 7 days, viability was analyzed using the AlamarBlue reagent (BioRad). AlamarBlue was added in an amount equal to 10% of the volume in the well and after a 4–6 h incubation viability was determined by fluorescence analysis using a standard plate reader. Fluorescence was normalized to vehicle treated control for each cell line, and data were fitted in Genedata Screener to generate compound sensitivity curves and determine IC50 or EC50 (half maximal inhibitory/effective concentration) values as indicated.

Each structure is given as a SMILES string.

By IC50 is commonly meant the concentration that inhibits the measured activity by half. In general, Kd refers to the equilibrium constant for the complex coming apart. Low values mean tighter binding, high ones weaker binding. In general, koff refers to the rate constant with which the complex falls apart. Broadly, the kon is the second-order rate constant of association. A low value points to slower complex formation. A word on the residence time: it is the mean lifetime of the complex, commonly the reciprocal of the off-rate. What is called EC50 is the concentration at which the effect is half-maximal. A low value points to a more potent agent.

T1 sequence (Q17RS7 1-527): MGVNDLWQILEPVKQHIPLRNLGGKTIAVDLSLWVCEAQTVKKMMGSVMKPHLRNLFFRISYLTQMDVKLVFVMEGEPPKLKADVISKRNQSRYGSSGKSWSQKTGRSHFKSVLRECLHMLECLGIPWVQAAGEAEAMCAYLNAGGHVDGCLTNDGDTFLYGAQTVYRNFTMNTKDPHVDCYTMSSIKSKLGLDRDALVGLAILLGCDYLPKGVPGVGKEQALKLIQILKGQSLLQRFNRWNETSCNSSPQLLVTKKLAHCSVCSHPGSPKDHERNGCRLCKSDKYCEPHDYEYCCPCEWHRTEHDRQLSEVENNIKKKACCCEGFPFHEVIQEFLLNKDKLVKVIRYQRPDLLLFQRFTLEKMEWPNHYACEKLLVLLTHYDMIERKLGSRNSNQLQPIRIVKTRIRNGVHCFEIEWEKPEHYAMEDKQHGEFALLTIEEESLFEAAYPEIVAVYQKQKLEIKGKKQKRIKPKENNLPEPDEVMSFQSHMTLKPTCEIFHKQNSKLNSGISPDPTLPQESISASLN

`C[C@H](Oc1nn2c(c(O)c1=O)C(=O)N1CCOC[C@@H]1C2)c1ccc2ccc(Cl)cc2c1` [MSC778]: the IC50 in experiment [1] was 1660 nM. In addition, in experiment [2], the Kd stood at 2.9 nM, the koff amounted to 0.00052 s⁻¹, the kon came out at 180000 M⁻¹ s⁻¹ and the residence time was 32 min. In experiment [3], this compound registered an EC50 of 2300 nM.

With `C[C@@H](Oc1nn2c(c(O)c1=O)C(=O)N1CCOC[C@@H]1C2)c1ccc2ccc(Cl)cc2c1` [MSC781], in experiment [2], the Kd amounted to 23 nM, the koff was 0.0034 s⁻¹, the kon came out at 150000 M⁻¹ s⁻¹ and the residence time was 4.8 min.

The values above are taken from publication PMC12684391, “Mechanistic insights into the monotherapy and combination potential of FEN1 inhibition in cancer therapy” (Nucleic Acids Research, 2025).
